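Following 48 hours of exposure in 96-well plates, responses at five concentrations were used to interpolate endpoints linearly. The concentration for 50% growth inhibition is given as GI50. TGI denotes the concentration required for complete inhibition of growth.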

Some test systems named below: SF-268 CNS; UACC-62 melanoma; LOX IMVI melanoma; CCRF-CEM leukemia; RPMI-8226 leukemia; MDA-MB-231 breast; SNB-75 CNS; HOP-62 NSCLC; HCT-116 colon; COLO 205 colon.
What all share (assay): NCI anticancer screen, dose series, 48 h

Turning to `O=c1[nH]ccc2nc(-c3ccc(CN4CCC(c5nc(-c6ccccn6)n[nH]5)CC4)cc3)c(-c3ccccc3)cc12`, the GI50 in the experiment on SF-268 CNS is 25.9 µM; in the experiment on UACC-62 melanoma, 16.3 µM; in the experiment with LOX IMVI melanoma, 19.3 µM; with CCRF-CEM leukemia it was 2.04 µM; in the experiment with RPMI-8226 leukemia, 4.85 µM; with MDA-MB-231 breast it was 19.2 µM. Besides, the GI50 is 0.0534 µM in the experiment with SNB-75 CNS, 27.8 µM with HOP-62 NSCLC, 17.2 µM in the experiment on HCT-116 colon and 1.54 µM with COLO 205 colon. The TGI in the experiment with SF-268 CNS was over 100 µM; in the experiment with UACC-62 melanoma, over 86.6 µM; with LOX IMVI melanoma, over 94.2 µM; in the experiment with CCRF-CEM leukemia it was over 100 µM; in the experiment with RPMI-8226 leukemia it was over 50.2 µM; in the experiment on MDA-MB-231 breast, over 75.8 µM. Also, the TGI in the experiment with SNB-75 CNS was 7.75 µM; in the experiment on HOP-62 NSCLC, over 100 µM; in the experiment with HCT-116 colon it was over 92.7 µM; in the experiment with COLO 205 colon, over 100 µM.
Regarding `O=c1oc2ccc(F)cc2c(=O)n1-c1ccc(Cl)cc1F`, the GI50 in the experiment on SF-268 CNS is 0.879 µM; with UACC-62 melanoma, 0.33 µM; in the experiment on LOX IMVI melanoma it was 0.527 µM; in the experiment on CCRF-CEM leukemia, 2.62 µM; in the experiment on RPMI-8226 leukemia, 0.356 µM; in the experiment with MDA-MB-231 breast, 0.675 µM. Moreover, the GI50 in the experiment with SNB-75 CNS was 0.375 µM; in the experiment with HOP-62 NSCLC, 1.57 µM; with HCT-116 colon, 0.563 µM; in the experiment on COLO 205 colon, 2.14 µM. The TGI was 11.7 µM in the experiment with SF-268 CNS; 1.56 µM in the experiment on UACC-62 melanoma; 6.97 µM with LOX IMVI melanoma; 13 µM in the experiment on CCRF-CEM leukemia; 1.9 µM in the experiment with RPMI-8226 leukemia; 6.33 µM with MDA-MB-231 breast. For the same compound, the TGI turned out to be 2.65 µM in the experiment on SNB-75 CNS, 6.53 µM in the experiment on HOP-62 NSCLC, 2.82 µM in the experiment with HCT-116 colon and 4.87 µM with COLO 205 colon.
Regarding `Cc1nc(N)sc1N=Nc1cc(Cl)c([N+](=O)[O-])cc1Cl`, the TGI with SF-268 CNS was 88.5 µM; with UACC-62 melanoma, 36.1 µM; in the experiment on LOX IMVI melanoma, 36.8 µM; in the experiment on CCRF-CEM leukemia, 35 µM; with RPMI-8226 leukemia, 21.8 µM; in the experiment with MDA-MB-231 breast, 45.9 µM. Besides, the TGI in the experiment with SNB-75 CNS was 30.5 µM; with HOP-62 NSCLC, 65 µM; with HCT-116 colon it was over 100 µM; in the experiment with COLO 205 colon it was over 100 µM.
For the compound `COc1cc(OC)c2cc(C(=O)O)c(=O)oc2c1`, the GI50 in the experiment on SF-268 CNS is over 100 µM; in the experiment with UACC-62 melanoma, over 71.8 µM; with LOX IMVI melanoma, over 100 µM; with CCRF-CEM leukemia, over 100 µM; with RPMI-8226 leukemia it was 6.1 µM; in the experiment with MDA-MB-231 breast, over 100 µM. Moreover, the GI50 with SNB-75 CNS, with HOP-62 NSCLC, in the experiment on HCT-116 colon and in the experiment on COLO 205 colon was over 100 µM throughout. Besides, the TGI is over 100 µM in the experiment with SF-268 CNS; over 100 µM in the experiment on UACC-62 melanoma; over 100 µM with LOX IMVI melanoma; over 100 µM in the experiment with CCRF-CEM leukemia; over 36.2 µM in the experiment on RPMI-8226 leukemia; over 100 µM in the experiment on MDA-MB-231 breast. For the same compound, the TGI with SNB-75 CNS, with HOP-62 NSCLC, in the experiment on HCT-116 colon and in the experiment on COLO 205 colon was over 100 µM throughout.
On to `COc1cc(Nc2ncc3c(C)nc(-c4cccc(Oc5ccccc5)c4)n3n2)cc(OC)c1OC`, for which the GI50 with SF-268 CNS is 6.6 µM; with UACC-62 melanoma it was 3.3 µM; in the experiment on LOX IMVI melanoma it was 3.57 µM; in the experiment with CCRF-CEM leukemia, 3.9 µM; in the experiment on RPMI-8226 leukemia, 6.08 µM; in the experiment with MDA-MB-231 breast it was 4.99 µM. The GI50 was 5.14 µM in the experiment on SNB-75 CNS, 10.6 µM with HOP-62 NSCLC, 3.03 µM in the experiment with HCT-116 colon and 7.68 µM with COLO 205 colon. Also, the TGI with SF-268 CNS was over 22.7 µM; in the experiment on UACC-62 melanoma, over 13.8 µM; in the experiment with LOX IMVI melanoma, over 15.5 µM; in the experiment with CCRF-CEM leukemia, over 25 µM; with RPMI-8226 leukemia it was over 25 µM; in the experiment with MDA-MB-231 breast it was over 24.2 µM. Besides, the TGI with SNB-75 CNS, in the experiment with HOP-62 NSCLC, in the experiment on HCT-116 colon and in the experiment on COLO 205 colon was over 25 µM in each case.
With `Cc1cc(O)ccc1O`, the GI50 with SF-268 CNS is 35.3 µM; in the experiment with UACC-62 melanoma it was 17.9 µM; in the experiment on LOX IMVI melanoma it was 13.7 µM; with CCRF-CEM leukemia it was 3.4 µM; in the experiment with RPMI-8226 leukemia, 9.26 µM; in the experiment on MDA-MB-231 breast, 11.4 µM. For the same compound, the GI50 is 24.1 µM with SNB-75 CNS, 34.8 µM in the experiment with HOP-62 NSCLC, 16.9 µM in the experiment with HCT-116 colon and 23.7 µM with COLO 205 colon. The TGI with SF-268 CNS was over 100 µM; with UACC-62 melanoma it was 81.3 µM; in the experiment on LOX IMVI melanoma, 27.4 µM; with CCRF-CEM leukemia, over 100 µM; in the experiment with RPMI-8226 leukemia, 89.7 µM; with MDA-MB-231 breast, 23.6 µM. In addition, the TGI is over 100 µM in the experiment on SNB-75 CNS, over 100 µM in the experiment on HOP-62 NSCLC, 32.9 µM with HCT-116 colon and 47.6 µM with COLO 205 colon.
In the case of `c1ccc2c(-c3nc4ccccc4[nH]3)cccc2c1`, the GI50 in the experiment with SF-268 CNS is 5.62 µM; with UACC-62 melanoma, 1.99 µM; in the experiment on LOX IMVI melanoma, 7.11 µM; in the experiment with CCRF-CEM leukemia, 2.54 µM; in the experiment with RPMI-8226 leukemia, 3.19 µM; with MDA-MB-231 breast it was 9.65 µM. For the same compound, the GI50 in the experiment with SNB-75 CNS was 2.35 µM; in the experiment with HOP-62 NSCLC it was 5.35 µM; in the experiment on HCT-116 colon, 3.47 µM; in the experiment on COLO 205 colon, 3.48 µM. Also, the TGI was over 100 µM in the experiment on SF-268 CNS; 27.3 µM in the experiment with UACC-62 melanoma; over 100 µM with LOX IMVI melanoma; 7.81 µM in the experiment on CCRF-CEM leukemia; 34.5 µM in the experiment on RPMI-8226 leukemia; over 100 µM with MDA-MB-231 breast. Moreover, the TGI in the experiment with SNB-75 CNS is 13.5 µM; in the experiment on HOP-62 NSCLC, 30.3 µM; with HCT-116 colon, 96.8 µM; with COLO 205 colon, 11.8 µM.
`O=C1CSC(=S)N1Cc1cccnc1`: the GI50 with SF-268 CNS is 5.75 µM; in the experiment with UACC-62 melanoma, 11.3 µM; with LOX IMVI melanoma, 2.58 µM; with CCRF-CEM leukemia, 4.37 µM; in the experiment with RPMI-8226 leukemia, 3.35 µM; in the experiment on MDA-MB-231 breast, 4.47 µM. The GI50 in the experiment with SNB-75 CNS was 16.2 µM; with HOP-62 NSCLC it was 47 µM; in the experiment with HCT-116 colon it was 3.36 µM; with COLO 205 colon, 5.59 µM. The TGI in the experiment on SF-268 CNS came to 23.3 µM; in the experiment with UACC-62 melanoma, 24.7 µM; in the experiment with LOX IMVI melanoma it was 12.5 µM; in the experiment on CCRF-CEM leukemia, 86.2 µM; in the experiment on RPMI-8226 leukemia, 17.1 µM; in the experiment with MDA-MB-231 breast it was 17.2 µM. Besides, the TGI was 72.5 µM in the experiment with SNB-75 CNS, over 100 µM in the experiment with HOP-62 NSCLC, 11 µM with HCT-116 colon and 21.1 µM in the experiment on COLO 205 colon.
Consider `NC(N)=N/N=C(/c1ccccc1)c1ccc(Cl)cc1`, for which the GI50 is 8.44 µM in the experiment with SF-268 CNS; 22.4 µM in the experiment with UACC-62 melanoma; 18.4 µM in the experiment with LOX IMVI melanoma; 3.89 µM in the experiment with CCRF-CEM leukemia; 1.53 µM with RPMI-8226 leukemia; 16.5 µM with MDA-MB-231 breast. Besides, the GI50 is 6.17 µM with SNB-75 CNS, 30.4 µM in the experiment with HOP-62 NSCLC, 4.71 µM in the experiment with HCT-116 colon and 14.4 µM with COLO 205 colon. For the same compound, the TGI in the experiment on SF-268 CNS was over 100 µM; with UACC-62 melanoma it was over 100 µM; in the experiment with LOX IMVI melanoma, over 100 µM; with CCRF-CEM leukemia, over 100 µM; in the experiment on RPMI-8226 leukemia, 26.6 µM; with MDA-MB-231 breast, 56.6 µM. Moreover, the TGI in the experiment on SNB-75 CNS was 70.2 µM; in the experiment with HOP-62 NSCLC, over 100 µM; in the experiment with HCT-116 colon, 63.6 µM; with COLO 205 colon, over 100 µM.
As for `CC1CC(C)/C(=N/NC(N)=O)C(C(O)CC2CCC(=O)NC2=O)C1` (stereo not given), the GI50 was 2.98 µM in the experiment on SF-268 CNS; 2.79 µM in the experiment with UACC-62 melanoma; 2.48 µM in the experiment on LOX IMVI melanoma; 2 µM with CCRF-CEM leukemia; 6.77 µM in the experiment with RPMI-8226 leukemia; 8.4 µM in the experiment with MDA-MB-231 breast. Also, the GI50 with SNB-75 CNS was 4.26 µM; with HOP-62 NSCLC it was 2.99 µM; in the experiment on HCT-116 colon, 3.04 µM; with COLO 205 colon, 3.7 µM. In addition, the TGI was 45.1 µM in the experiment with SF-268 CNS; over 100 µM with UACC-62 melanoma; over 100 µM in the experiment with LOX IMVI melanoma; 97.2 µM with CCRF-CEM leukemia; 94.1 µM with RPMI-8226 leukemia; 88.9 µM with MDA-MB-231 breast. The TGI with SNB-75 CNS was over 100 µM; in the experiment on HOP-62 NSCLC it was over 100 µM; in the experiment on HCT-116 colon, over 100 µM; with COLO 205 colon it was 51.5 µM.

The values above are taken from PubChem BioAssay (NCI).
